Columns and labels:
[1] = target: Dual specificity tyrosine-phosphorylation-regulated kinase 1A (Rattus norvegicus, UniProt Q63470); assay: Inhibition of rat recombinant DYRK1A-GST expressed in Escherichia coli using KKISGRLSPIMTEQ as substrate
[2] = Inhibition of porcine brain CK1delta/epsilon using RRKHAAIGpSAYSITA as substrate; design: species or system Sus scrofa
[3] = target: Glycogen synthase kinase-3 (Sus scrofa, UniProt B2LUN4+I6LNT8); assay: Inhibition of porcine brain GSK3alpha/beta using GS-1 as substrate
[4] = target: Cyclin-dependent kinase 5/CDK5 activator 1 (Homo sapiens, UniProt Q00535); assay: Inhibition of human recombinant CDK5/p25 after 30 mins by scintillation counting; format: protein-complex assay
Sequence of Cyclin-dependent kinase 5/CDK5 activator 1 (Q00535 whole entry): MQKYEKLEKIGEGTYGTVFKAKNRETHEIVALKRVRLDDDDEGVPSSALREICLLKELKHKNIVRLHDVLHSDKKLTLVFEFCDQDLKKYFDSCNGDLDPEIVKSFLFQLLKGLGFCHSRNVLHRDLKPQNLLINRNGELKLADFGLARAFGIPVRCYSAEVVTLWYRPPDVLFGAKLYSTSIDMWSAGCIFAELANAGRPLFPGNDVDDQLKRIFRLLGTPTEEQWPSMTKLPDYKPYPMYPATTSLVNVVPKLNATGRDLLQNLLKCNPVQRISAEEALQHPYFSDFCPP
Sequence of Cyclin-dependent kinase 5/CDK5 activator 1 (Q15078 whole entry, further chain): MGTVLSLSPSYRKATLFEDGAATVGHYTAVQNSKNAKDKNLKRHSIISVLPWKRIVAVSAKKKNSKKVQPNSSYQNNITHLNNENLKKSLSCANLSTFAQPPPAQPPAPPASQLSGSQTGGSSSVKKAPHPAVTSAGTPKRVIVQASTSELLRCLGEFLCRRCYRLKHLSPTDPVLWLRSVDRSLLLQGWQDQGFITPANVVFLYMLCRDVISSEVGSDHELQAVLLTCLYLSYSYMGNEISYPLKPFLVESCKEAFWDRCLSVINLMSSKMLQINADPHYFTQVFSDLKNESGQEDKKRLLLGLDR

[5] = target: Dual specificity protein kinase CLK1 (Homo sapiens, UniProt P49759)
Sequence of Dual specificity protein kinase CLK1 (P49759 whole entry): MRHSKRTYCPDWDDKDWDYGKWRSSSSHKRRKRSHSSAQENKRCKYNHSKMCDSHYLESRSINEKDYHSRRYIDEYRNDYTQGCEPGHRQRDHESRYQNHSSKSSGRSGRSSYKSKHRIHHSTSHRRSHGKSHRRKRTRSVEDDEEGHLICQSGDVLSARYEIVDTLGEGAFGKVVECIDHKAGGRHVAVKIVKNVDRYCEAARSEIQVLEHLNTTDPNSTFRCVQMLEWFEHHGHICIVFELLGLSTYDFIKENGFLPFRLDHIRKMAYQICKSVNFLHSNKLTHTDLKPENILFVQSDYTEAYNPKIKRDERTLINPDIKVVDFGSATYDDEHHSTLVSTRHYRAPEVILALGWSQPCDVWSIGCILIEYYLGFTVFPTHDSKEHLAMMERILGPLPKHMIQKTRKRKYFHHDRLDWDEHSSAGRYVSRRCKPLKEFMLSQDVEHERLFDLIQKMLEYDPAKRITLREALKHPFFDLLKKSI

Row | IC50 [1] | IC50 [2] | IC50 [3] | IC50 [4] | IC50 [5] | SMILES
1 | 0.66 µM | > 10 µM | > 10 µM | > 10 µM | 0.79 µM | COc1ccc2c(c1)sc1c(Nc3ccc(N(C)C)cc3)ncnc12
2 | 2.8 µM | > 10 µM | > 10 µM | > 10 µM | 2 µM | COc1ccc2c(c1)oc1c(Nc3ccc4c(c3)OCO4)ncnc12
3 | > 10 µM | > 10 µM | > 10 µM | > 10 µM | > 10 µM | COc1ccc2c(c1)oc1c(Nc3ccc(Br)cc3)ncnc12
4 | > 10 µM | > 10 µM | > 10 µM | > 10 µM | > 10 µM | COc1ccc2c(c1)oc1c(Nc3ccc(Cl)cc3)ncnc12
5 | > 10 µM | > 10 µM | > 10 µM | > 10 µM | > 10 µM | COc1ccc2c(c1)oc1c(Nc3cccc(Cl)c3)ncnc12
6 | 3.2 µM | > 10 µM | > 10 µM | > 10 µM | 4.2 µM | COc1ccc2c(c1)oc1c(Nc3ccccc3Cl)ncnc12
7 | > 10 µM | > 10 µM | > 10 µM | > 10 µM | > 10 µM | COc1ccc2c(c1)oc1c(Nc3ccc(Cl)c(Cl)c3)ncnc12
8 | > 10 µM | > 10 µM | > 10 µM | > 10 µM | > 10 µM | COc1ccc2c(c1)oc1c(Nc3cc(Cl)cc(Cl)c3)ncnc12
9 | 3.1 µM | > 10 µM | > 10 µM | > 10 µM | > 10 µM | COc1ccc2c(c1)oc1c(Nc3ccc(Cl)cc3Cl)ncnc12
10 | > 10 µM | > 10 µM | > 10 µM | > 10 µM | > 10 µM | COc1ccc2c(c1)oc1c(Nc3ccc(F)c(Cl)c3)ncnc12
11 | > 10 µM | > 10 µM | > 10 µM | > 10 µM | > 10 µM | COc1ccc2c(c1)oc1c(Nc3ccc(Cl)cc3F)ncnc12
12 | > 10 µM | > 10 µM | > 10 µM | > 10 µM | > 10 µM | COc1ccc2c(c1)oc1c(Nc3ccc(F)cc3F)ncnc12
13 | > 10 µM | > 10 µM | > 10 µM | > 10 µM | > 10 µM | COc1ccc2c(c1)oc1c(Nc3ccc(Br)cc3F)ncnc12
14 | > 10 µM | > 10 µM | > 10 µM | > 10 µM | > 10 µM | COc1ccc(Nc2ncnc3c2oc2cc(OC)ccc23)c(F)c1
15 | > 10 µM | > 10 µM | > 10 µM | > 10 µM | > 10 µM | COc1ccc2c(c1)oc1c(Nc3ccc(C#N)cc3)ncnc12
16 | > 10 µM | > 10 µM | > 10 µM | > 10 µM | > 10 µM | COc1ccc2c(c1)oc1c(Nc3cccc(C(F)(F)F)c3)ncnc12
17 | > 10 µM | > 10 µM | > 10 µM | > 10 µM | > 10 µM | COc1ccc2c(c1)oc1c(Nc3ccc(N(C)C)cc3)ncnc12
18 | > 10 µM | > 10 µM | > 10 µM | > 10 µM | > 10 µM | COc1ccc2c(c1)sc1c(N)ncnc12
19 | > 10 µM | > 10 µM | > 10 µM | > 10 µM | > 10 µM | COc1ccc2c(c1)sc1c(Nc3ccccc3)ncnc12
20 | > 10 µM | > 10 µM | > 10 µM | > 10 µM | > 10 µM | COc1ccc2c(c1)sc1c(Nc3ccc(C)cc3)ncnc12
21 | 6.1 µM | > 10 µM | > 10 µM | > 10 µM | > 10 µM | COc1ccc2c(c1)sc1c(Nc3cccc(C)c3)ncnc12
22 | 7.1 µM | > 10 µM | > 10 µM | > 10 µM | > 10 µM | COc1ccc(Nc2ncnc3c2sc2cc(OC)ccc23)cc1
23 | 0.93 µM | > 10 µM | > 10 µM | > 10 µM | 2.8 µM | COc1ccc2c(c1)sc1c(Nc3ccc(OC)c(OC)c3)ncnc12
24 | 3.9 µM | > 10 µM | > 10 µM | > 10 µM | 5.1 µM | COc1cc(Nc2ncnc3c2sc2cc(OC)ccc23)cc(OC)c1

Row | IC50 [1] | IC50 [2] | IC50 [3] | IC50 [4] | IC50 [5] | SMILES
25 | > 10 µM | > 10 µM | > 10 µM | > 10 µM | > 10 µM | COc1ccc2c(c1)sc1c(Nc3cc(OC)c(OC)c(OC)c3)ncnc12
26 | 0.5 µM | > 10 µM | > 10 µM | > 10 µM | 0.68 µM | COc1ccc2c(c1)sc1c(Nc3ccc4c(c3)OCCO4)ncnc12
27 | > 10 µM | > 10 µM | > 10 µM | > 10 µM | > 10 µM | COc1ccc2c(c1)sc1c(Nc3ccc(F)cc3)ncnc12
28 | > 10 µM | > 10 µM | > 10 µM | > 10 µM | > 10 µM | COc1ccc2c(c1)sc1c(Nc3ccc(Br)cc3)ncnc12
29 | > 10 µM | > 10 µM | > 10 µM | > 10 µM | > 10 µM | COc1ccc2c(c1)sc1c(Nc3ccc(Cl)cc3)ncnc12
30 | > 10 µM | > 10 µM | > 10 µM | > 10 µM | > 10 µM | COc1ccc2c(c1)sc1c(Nc3cccc(Cl)c3)ncnc12
31 | 0.61 µM | > 10 µM | > 10 µM | > 10 µM | 3.1 µM | COc1ccc2c(c1)sc1c(Nc3ccccc3Cl)ncnc12
32 | 2 µM | > 10 µM | > 10 µM | > 10 µM | 6.1 µM | COc1ccc2c(c1)sc1c(Nc3ccc(Cl)c(Cl)c3)ncnc12
33 | 8.1 µM | > 10 µM | > 10 µM | > 10 µM | > 10 µM | COc1ccc2c(c1)sc1c(Nc3cc(Cl)cc(Cl)c3)ncnc12
34 | 1.6 µM | > 10 µM | > 10 µM | > 10 µM | > 10 µM | COc1ccc2c(c1)sc1c(Nc3ccc(Cl)cc3Cl)ncnc12
35 | > 10 µM | > 10 µM | > 10 µM | > 10 µM | > 10 µM | COc1ccc2c(c1)sc1c(Nc3ccc(Cl)cc3F)ncnc12
36 | 0.93 µM | 3.9 µM | > 10 µM | > 10 µM | 1.6 µM | COc1ccc2c(c1)sc1c(Nc3ccc(F)cc3F)ncnc12
37 | 0.71 µM | > 10 µM | > 10 µM | > 10 µM | 2.3 µM | COc1ccc2c(c1)sc1c(Nc3ccc(Br)cc3F)ncnc12
38 | 0.71 µM | > 10 µM | > 10 µM | > 10 µM | > 10 µM | COc1ccc(Nc2ncnc3c2sc2cc(OC)ccc23)c(F)c1
39 | 2.6 µM | > 10 µM | > 10 µM | > 10 µM | 6.8 µM | COc1ccc2c(c1)sc1c(Nc3ccc(C#N)cc3)ncnc12
40 | > 10 µM | > 10 µM | > 10 µM | > 10 µM | > 10 µM | COc1ccc2c(c1)sc1c(Nc3cccc(C(F)(F)F)c3)ncnc12
41 | 1.1 µM | 1.9 µM | > 10 µM | > 10 µM | 0.41 µM | COc1ccc2c(c1)oc1c(N)ncnc12
42 | > 10 µM | > 10 µM | > 10 µM | > 10 µM | > 10 µM | COc1ccc2c(c1)oc1c(Nc3ccccc3)ncnc12
43 | > 10 µM | > 10 µM | > 10 µM | > 10 µM |  | COc1ccc2c(c1)oc1c(Nc3ccc(C)cc3)ncnc12
44 | > 10 µM | > 10 µM | > 10 µM | > 10 µM | > 10 µM | COc1ccc2c(c1)oc1c(Nc3cccc(C)c3)ncnc12
45 | 0.88 µM | > 10 µM | > 10 µM | > 10 µM | 1.5 µM | COc1ccc(Nc2ncnc3c2oc2cc(OC)ccc23)cc1
46 | > 10 µM | > 10 µM | > 10 µM | > 10 µM | > 10 µM | COc1ccc2c(c1)oc1c(Nc3ccc(OC)c(OC)c3)ncnc12
47 | > 10 µM | > 10 µM | > 10 µM | > 10 µM |  | COc1cc(Nc2ncnc3c2oc2cc(OC)ccc23)cc(OC)c1
48 | > 10 µM | > 10 µM | > 10 µM | > 10 µM | > 10 µM | COc1ccc2c(c1)oc1c(Nc3cc(OC)c(OC)c(OC)c3)ncnc12

Row | SMILES | IC50 [1] | IC50 [2] | IC50 [3] | IC50 [4] | IC50 [5]
49 | COc1ccc2c(c1)oc1c(Nc3ccc4c(c3)OCCO4)ncnc12 | > 10 µM | > 10 µM | > 10 µM | > 10 µM | > 10 µM
50 | COc1ccc2c(c1)oc1c(Nc3ccc(F)cc3)ncnc12 | > 10 µM | > 10 µM | > 10 µM | > 10 µM | > 10 µM
51 | COc1ccc2c(c1)sc1c(Nc3ccc4c(c3)OCO4)ncnc12 | > 10 µM | > 10 µM | > 10 µM | > 10 µM | > 10 µM
52 | COc1ccc2c(c1)sc1c(Nc3ccc(F)c(Cl)c3)ncnc12 | > 10 µM | > 10 µM | > 10 µM | > 10 µM | > 10 µM
53 | COc1ccc2c(c1)[nH]c1c(C)nccc12 [HARMINE] |  | 1.5 µM | > 10 µM |  | 
